Results from patent US20140099354A1, “BIOPASSIVATING MEMBRANE STABILIZATION BY MEANS OF NITROCARBOXYLIC ACID-CONTAINING PHOSPHOLIPIDS IN PREPARATIONS AND COATINGS” (priority 2011, published 2014).
Blank lines part the entries; values can stand above or below the compound they belong to.

How the values were obtained:
[1] = Abrasion stability and traction work load of coated balloon catheters; format: physicochemical
Protocol: Balloon catheters were coated by means of the Langmuir-Schaefer procedure where the balloon segment was aligned longitudinally and coaxial to the solution surface, dipping into the liquid for approx. 1 mm over the entire length. Then the catheter was slowly rotated around its axis 5 times. Phospholipids were dissolved at a concentration of 3 mmol in an ion-free aqueous solution at 50° C. The solution was cooled and given to the coating solution then. In case of incomplete dissolution of the phospholipids or if they separated when cooled, DMSO was added at a concentration of up to 20 vol.-%, preferably up to 10 vol.-%. After coating, the catheters were vacuum dried for 8 hours in order to remove residual solvent.
The tubing was filled with a 10% human albumin solution at a temperature of 35° C. The cable system, which had previously been brought through the tubing was connected to the catheter tip and tracked outside the tubing by reversing pulleys, which allowed exactly vertically traction of the cable that was connected to a motorized winch. The winch was mounted on a digital precision balance. The catheters mounted in this manner were pulled through the tubing system and the weight changes measured by the balance, which represented the traction work load achieved for the passage of the catheter, was recorded continuously. These readings were integrated over time. The resultant values allow estimation of the total shear force that occurred during the passage of the catheter through the tubing system.

[2] = tested on: ovarian tissue strips; test: Cryopreservation of ovarian tissue strips: intact follicles; settings: liquid nitrogen 14 days, cultured 14 days
Protocol: Ovar ectomy was performed in female sheep; resected tissues were cut into 60 ovarian tissue strips. The ovarian strips were either cultured directly (n=4) or prepared with a usual solution for vitrification (VS group; Vitrification Kit, Sage, USA) or incubated with nitrated PLs (NPL group). For this purpose, the tissue strips were bathed in an equibrilation solution (ART-8025-A) which consisted of MOPS-buffered amino acids and gentamicin sulfate (10 mg/l), and 7.5% (v/v) of each DMSO and ethylene glycol and 12 mg/ml human serum albumin for 30 minutes. Thereafter the strips of the VS group were placed in the vitrification solution (ART-8025-B), which is a MOPS-buffered solution containing amino acids and gentamicin sulfate, that contain 15% (v/v) each DMSO and ethylenglycol, 12 mg/ml human albumin and 0.6 M sucrose. The strips of the NPL group were placed in a solution containing 25% (v/v) nitrated PL SNOPC or PNLPC in a PBS-buffered 1% DMSO solution containing 5% human albumin for 60 minutes. The treated tissue strips were then immersed into liquid nitrogen and kept here for 14 days. Then removal and warming of the tissue pieces was performed in AIM-V medium (Gibco, Invitrogen) in a sterile culture dish, first up to 5° C. within 20 minutes, then heated further in a water bath up to 37° C., within the following 60 minutes. The culture medium was replaced and specimens cultured for 14 days. After this, the tissue pieces were fixed, embedded in paraffin and cut, followed by histological examination. […] The total number of intact follicles in the control group was taken as a reference to the number of follicles in the cryopreserved groups.
The culture medium has been exchanged by every 2nd day; samples for hormone analysis were taken and frozen at that time. Determination of 17 β-estradiol and progesterone were performed with a radio-immuno assay (diagnostic systems laboratories, USA).

[3] = Tissue response to coated silicone implants in vivo after bleomycin; design: species or system Wistar rats; settings: silicone cushions, subcutaneous, 7 to 90 days
Protocol: Induction of fibrotic tissue production by connective tissue activation as a consequence of implantation of foreign material was examined in an in-vivo animal model. As implant materials, sterile silicone cushions having a diameter of 1 cm were used.
In male Wistar rats (190-240 g) that were fed and housed under identical conditions for one week, general anaesthesia was performed by intramuscular injection of 0.008 mL/100 g ketamine and 0.004 mL/100 g xylocaln chloride 2%. Then the back of the animals was shaved, sterilized and infiltrated with xylocalne chloride. A paravertebral incision was made on both sides with a length of 1.5 cm followed by preparation of the subcutaneous tissue, so that on both sides approx. 2×2 cm cavities were preformed. Hemostasis was achieved by cauterization, if necessary. Then balls of cotton saturated with Bleomycin (cell-pharm GmbH, Hannover, Germany: 1% in 0.9% NaCl solution) were inserted into the cavities for 3 minutes and then removed. Without rinsing the cavities, the implants coated with a nitrated phospholipid were inserted into the cavity on the left side and the implants coated with natural phospholipid into the cavity on the right side. Thereafter, a layer by layer wound closure was performed and a sterile adhesive bandage was applied.
The animals were kept according to standard conditions for 7, 14, 30, 60 and 90 days. At any study time endpoint, two animals were euthanized. After death the well visible and palpable implants were removed using en-block resection technique. The resected specimens were fixed and embedded in paraffin. Then they were cut in half and the liquid silicone was removed. The specimens were embedded again and cut into thin slices which were stained with H & E and Sirius red, and evaluated by light microscopy. Evaluation was done according to the following criteria:
A1: none; A2: occasional monocytic cells or lymphocytes; A3: moderate numbers or groups of monocytic cells or lymphocytes; A4: dense infiltration of monocytes, eosinophils, or giant cells.
B1: none; B2: collagen-rich layer around the implant; B3: thick (>1 mm) and dense collagen-rich tissue formation around the implant.
In every 10th serial section 10 fields of view uniformly distributed over the circumference of the implant were evaluated and the herein predominant expression was assigned to an event table. In total, 200 fields of view were analyzed per implant

[4] = Transisomerization of unsaturated fatty acids in coatings on balloon catheters (FTIR); format: physicochemical; settings: for proportion of trans-fatty acids: after heat treatment (60° C., three hours)
Source text: The natural phospholipids POPC and SLPE, as well as the analogous nitrated phospholipids as shown in example C(PNOPC) and […]), as well as the phospholipids according to examples […], and S as a mono substance and as a combination of the native phospholipids and the corresponding nitro-carboxylic acid (s)-containing phospholipids mixed in a ratio of 1:1 were used for this investigation. Balloon catheters were coated by means of the Langmuir-Schaefer procedure where the balloon segment was aligned longitudinally and coaxial to the solution surface, dipping into the liquid for approx. 1 mm over the entire length. Then the catheter was slowly rotated around its axis 5 times. […] The solution was cooled and given to the coating solution then. In case of incomplete dissolution of the phospholipids or if they separated when cooled, DMSO was added at a concentration of up to 20 vol.-%, preferably up to 10 vol.-%. After coating, the catheters were vacuum dried for 8 hours in order to remove residual solvent. The abrasion or loss of coating layers was determined by weighing the catheter before and after coating as well as after the mechanical stability test in the tubing system as described above using a high precision balance. In order to examine the long-term stability of the coating, catheters coated with phospholipids were sealed with polyethylene glycol 1000 (Roth, Germany). For that purpose PEG 1000 was melted and mixed with a 10% ethanol solution at 50° C. A portion of the phospholipid-coated balloon catheter was coated by means of dip-coating in this PEG solution at 50° C., and dried thereafter for 8 hours. Stability of cis-conformity of unsaturated fatty acids of the phospholipids investigated was determined after heat treatment at 60° C. for three hours in a heating cabinet. After 24 hours and after 2 months the phospholipids coated on the balloon surface were detached and analyzed. Detachment was carried out in 50 ml of a chloroform:methanol mixture (3:1, v: v). A 10 μl aliquot was used for a FTIR spectroscopy. For this purpose the samples were dropped on a ZnSe ATR crystal and then the solvent was evaporated. Degree of transisomerization was determined using the integral of intensity of proton resonance in comparison to that measured from a cis configuration of the reference substances. Measurements were performed 24 hours after coating, heat treatment and after 2 months of storage at 25° C. under sterile room air conditions.

[5] = tested on: cortical neurons; test: Hypoxia and reperfusion of cortical neurons (viability, LDH); settings: for results of the hypoxia experiments compared with reference nitrated phospholipids: neurons and cardiac myocytes, 10 to 50 μmol/l
[6] = tested on: HeLa, HUVEC and L929 fibroblast; test: cells; format: cell-based
Protocol: Physiologically occurring phospholipids can be taken up by virtually all cell lines in large quantities. It is known that phospholipids that contain non-physiologically occurring fatty acid residues can cause cell lyses or death. Three cell lines (HeLa, HUVEC and L929 fibroblast) were cultured in a suitable culture medium of 5% FCS at 37° C. and 5% CO2 concentrations to a subconfluent concentration of 1.5×10^5 cells.
SOPC, DOPC, POPC, ONOPC, PNLPC, and the free fatty acids of OA, LA, NOOA, and NOLA were dissolved in 0.5% DMSO. […] Cell cultures were incubated for 24 h and 48 h. Thereafter, the culture medium was removed and the cells washed twice. Following this, cells suspensions were given in four vials to perform the following analysis:
For the determination of viability, phenol red was added to the suspended cells. After 4 h, the medium was renewed and 10 μl of the MTT solution was added. The cells were cultured for 4 hours, and then a 10% SDS solution was pipetted. After 24 h, absorption of formazan crystals was measured at 500 nm using a power wave X (bio-tek instruments, Inc., USA). For the quantitative comparison of toxicity, the EC50 was determined.

[7] = tested on: Cardiac muscle cells derived from neonatal rat heart; test: Hypoxia of cardiac muscle cells (viability, mitochondrial NAD+); format: cell-based; settings: for mitochondrial NAD+ content: hypoxia, baseline 5
Protocol: Cardiac muscle cells derived from neonatal rat heart (Nitobe J, et al, Reactive oxygene species regulate FLICE inhibitory protein and susceptibility to FAS-mediated apoptosis in cardiac myocytes. Cardiovasc RES 2003, 119-28). The heart muscle cells were cultured in Dulbecco/Eagle medium (DMEM) with 10% FCS added under standard conditions for two days. Incubation with the natural and nitrated phospholipids, as well as the hypoxia experiments were carried out as described above. Incubated cells were grown in culture medium under standard conditions for 24 hours. This is followed by a vitality staining as described above. […] The frozen cells were thawed up to -4° C. and homogenized for subsequent NAD^+ analyses. By means of differential centrifuge, pellets containing mitochondria were separated (Di Lisa, et al, 1993; Am. J. Physiol. 264, […]-[…]). The NAD^+ content was determined by fluoroscopy, and normalized to the protein content (Veloso, D., and […]., 1974;) Anal. Biochem., 449-450).

[8] = tested on: sciatic nerve; test: Viability of cryopreserved nerve grafts (Annexin-V staining, FACS); format: cell-based, rats; settings: 100 mmolar solution 1 hour; −30° C. 72 hours
Protocol: The sciatic nerve was prepared and sectured in anesthetized rats. The nerve pieces were freed from connective tissue and divided into 3 parts. Specimens were placed in culture DMEM medium containing low a concentration of glucose (1 g/L) with L-glutamine (PAA, Pasching Austria) for 24 hours. […] Nerve specimens from the same animals that received no pretreatment served as controls. After incubation, the specimens were cultured for 24 hours. In a further control group, specimens were cryopreserved without any pretreatment. The specimens were covered with a sterile gauze pad moistened with culture medium. Thereafter the temperature was gradually cooled to −30° C. After 72 hours, the nerve pieces were gradually rewarmed to 37° C. After this, renewed culturing was done for 48 hours. The nerve pieces were dissected enzymatically then (collagenase A and D, Roche, Mannheim, Germany) followed by a mechanical separation through multiple uptake and release in a glass pipette. The isolated cells were washed and marked with a living/death staining (Annexin-V-Fluos staining Kit, Roche Diagnostics, Mannheim, Germany) and quantified using FACS analysis. The number of living cells identified was set in relation to the total cells count.

[9] = top coating with PEG, after 2 month

mechanical removal of coating substance and workload to pull the catheter through PTFE tubing [1]: Very similar results
Compound: 1,2-di-(9-nitrolinoleoyl)-sn-3-glycerophosphocholine, 1,2-di-(10-nitrolinoleoyl)-sn-3-glycerophosphocholine, 1-(9-nitrolinoleoyl)-2-(10-nitrolinoleoyl)-sn-3-glycerophosphocholine and 1-(10-nitrolinoleoyl)-2-(9-nitrolinoleoyl)-sn-3-glycerophosphocholine [Example N1]
rate of intact follicles relative to the control group [2]: 93%

Compound: 1,2-di-(9-nitrolinoleoyl)-sn-3-glycerophosphocholine, 1,2-di-(10-nitrolinoleoyl)-sn-3-glycerophosphocholine, 1-(9-nitrolinoleoyl)-2-(10-nitrolinoleoyl)-sn-3-glycerophosphocholine and 1-(10-nitrolinoleoyl)-2-(9-nitrolinoleoyl)-sn-3-glycerophosphocholine [Example N8]
biocompatibility of coated implants compared to natural PLs [3]: improved biocompatibility of implants several-fold

mechanical removal of coating substance and workload to pull the catheter through PTFE tubing [1]: Very similar results
Compound: 1-(5,8,11-eicosatrienoyl)-2-(9-nitro-α-linolenoyl)-sn-3-glycerophosphocholine and 1-(5,8,11-eicosatrienoyl)-2-(10-nitro-α-linolenoyl)-sn-3-glycerophosphocholine [Example P5]
rate of intact follicles relative to the control group [2]: 90%

Compound: CCCCCCCC/C=C(\CCCCCCCC(=O)O[C@H](COC(=O)CCCCCCCCCCCCCCC)COP(=O)([O-])OCC[N+](C)(C)C)[N+](=O)[O-] [Example C, (E)-1-Palmitoyl-2-(9-nitrooleoyl)-sn-3-glycerophosphocholine]
proportion of trans-fatty acids [4]: 25%
degree of transisomerization ([4]; coatings after 2 months): 30%
degree of transisomerization [4, 9]: 32%
results of the hypoxia experiments compared with reference nitrated phospholipids [5]: did not show relevant differences

mechanical removal of coating substance and workload to pull the catheter through PTFE tubing [1]: Very similar results
Compound: CCCCCCCCC(O)C(CCCCCCCC(=O)OC[C@H](COP(=O)([O-])OCC[N+](C)(C)C)OC(=O)CCCCCCCC(C(O)CCCCCCCC)[N+](=O)[O-])[N+](=O)[O-] (stereo partly drawn) [Example O1, 1,2-di-(9-nitro-10-hydroxy-stearoyl)-sn-3-glycerophosphocholine]
results of the hypoxia experiments compared with reference nitrated phospholipids [5]: slightly worse results

Compound: CC/C=C(\C/C=C\C/C=C\CCCCCCCC(=O)O[C@H](COC(=O)CCCCCCC/C=C\C/C=C\CCCCC)COP(=O)([O-])OCC[N+](C)(C)C)[N+](=O)[O-] [Example P12, 1-linoleoyl-2-(E-15-nitro-α-linolenoyl)-sn-3-glycerophosphocholine]
rate of intact follicles relative to the control group [2]: 91%
biocompatibility of coated implants compared to natural PLs [3]: improved biocompatibility of implants several-fold

Compound: CCCCCCCC/C=C\CCCCCCCC(=O)OC[C@H](COP(=O)([O-])OCC[N+](C)(C)C)OC(=O)CCCCCCC/C(=C\CCCCCCCC)[N+](=O)[O-] [Example P15, 1-oleoyl-2-(E-9-nitrooleoyl)-sn-3-glycerophosphocholine]
total viability (MTT assay) [6]: 83%
EC50 ([6]; after 48 hours, range over cell lines, read-out: EC50 (MTT assay)): 800 to 5000 µM

Compound: CCCCC/C=C\C/C=C\CCCCCCCC(=O)O[C@H](COC(=O)CCCCCCCCCCCCCCC)COP(=O)([O-])OCC[N+](C)(C)C [PLPC, 1-Palmitoyl-2-linoleoyl-sn-glycero-3-PC, reference compound]
loss of viability of heart muscle cells after hypoxia ([7]; (10 minutes)): 16%
loss of viability of heart muscle cells after hypoxia ([7]; (30 minutes)): 42%
mitochondrial NAD+ content ([7]; first printed value): 2.4 nmol/mg protein
mitochondrial NAD+ content ([7]; second printed value): 0.7 nmol/mg protein
increase in LDH versus normoxemia culture ([5]; 10-minutes ischemia): 380 fold
viability of cortical cells measured after 24 hours ([5]; 10-minutes ischemia): 30%
increase in LDH versus normoxemia culture ([5]; 30-minutes ischemia): 630 fold
viability of cortical cells measured after 24 hours ([5]; 30-minutes ischemia): 0%

proportion of trans-fatty acids [4]: 86%
degree of transisomerization ([4]; coatings after 2 months): 98%
degree of transisomerization [4, 9]: 92%
Compound: CCCCC/C=C\C/C=C\CCCCCCCC(=O)O[C@H](COC(=O)CCCCCCCCCCCCCCCCC)COP(=O)(O)OCCN [SLPE, 1-Stearoyl-2-linoleoyl-sn-3-glycero-phosphatidylethanolamine, reference compound]
proportion of living cells relative to non-frozen control [8]: 15%
